Reference: ChEMBL document CHEMBL4480364, “Discovery of monoamine oxidase inhibitors by medicinal chemistry approaches” (Medchemcomm, 2019)

What was measured:
[1] = target: T1, Amine oxidase [flavin-containing] B (Homo sapiens, UniProt P27338); assay: Inhibition of human MAOB
T1 sequence (P27338 whole entry): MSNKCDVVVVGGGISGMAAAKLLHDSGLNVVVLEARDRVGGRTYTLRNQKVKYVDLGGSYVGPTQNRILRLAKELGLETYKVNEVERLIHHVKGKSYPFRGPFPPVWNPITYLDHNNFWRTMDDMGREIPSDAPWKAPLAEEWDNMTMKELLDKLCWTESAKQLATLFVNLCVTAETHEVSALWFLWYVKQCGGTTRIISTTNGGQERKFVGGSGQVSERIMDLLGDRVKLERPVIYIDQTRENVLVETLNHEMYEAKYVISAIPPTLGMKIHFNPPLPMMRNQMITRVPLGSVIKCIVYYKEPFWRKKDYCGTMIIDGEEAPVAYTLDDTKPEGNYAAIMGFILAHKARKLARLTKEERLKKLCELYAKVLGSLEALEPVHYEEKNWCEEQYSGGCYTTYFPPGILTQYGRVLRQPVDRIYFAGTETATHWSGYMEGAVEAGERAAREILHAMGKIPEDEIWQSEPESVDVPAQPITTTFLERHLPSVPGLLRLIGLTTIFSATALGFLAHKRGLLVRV

[2] = target: T2, MAO-A (amine oxidase [flavin-containing] A) (Homo sapiens, UniProt P21397); assay: Inhibition of human MAOA at 1 uM relative to control
T2 sequence (P21397 whole entry): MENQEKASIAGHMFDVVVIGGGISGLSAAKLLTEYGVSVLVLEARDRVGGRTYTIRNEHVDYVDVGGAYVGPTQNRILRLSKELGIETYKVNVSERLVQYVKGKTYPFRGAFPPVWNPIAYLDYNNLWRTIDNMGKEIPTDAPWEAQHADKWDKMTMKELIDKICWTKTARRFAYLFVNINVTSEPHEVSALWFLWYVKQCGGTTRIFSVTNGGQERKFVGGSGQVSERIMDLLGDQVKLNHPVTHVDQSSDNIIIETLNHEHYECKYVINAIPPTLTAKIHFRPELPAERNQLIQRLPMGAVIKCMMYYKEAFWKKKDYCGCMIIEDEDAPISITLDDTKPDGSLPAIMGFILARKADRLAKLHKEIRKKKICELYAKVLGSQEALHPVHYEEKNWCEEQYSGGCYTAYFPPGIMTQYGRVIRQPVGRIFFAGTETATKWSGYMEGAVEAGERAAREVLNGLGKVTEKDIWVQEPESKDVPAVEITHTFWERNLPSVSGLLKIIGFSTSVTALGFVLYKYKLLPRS

[3] = target: T3, MAO-B (amine oxidase [flavin-containing] B) (Homo sapiens, UniProt P27338); assay: Inhibition of human MAOB at 1 uM relative to control
T3 sequence (P27338 whole entry): T1 sequence (P27338 whole entry)

[4] = target: T4, Amine oxidase [flavin-containing] A (Homo sapiens, UniProt P21397); assay: Inhibition of recombinant human MAOA using p-tyramine as substrate after 15 mins by Amplex Red dye-based fluorometric method
T4 sequence (P21397 whole entry): T2 sequence (P21397 whole entry)

Homo sapiens [5] = species on record: Homo sapiens; assay: Selectivity index, ratio of Ki for recombinant human MAOA to Ki for recombinant human MAOB
[6] = target: T1, Amine oxidase [flavin-containing] B; assay: Inhibition of recombinant human MAOB using p-tyramine as substrate after 15 mins by Amplex Red dye-based fluorometric method
[7] = target: T4, Amine oxidase [flavin-containing] A; assay: Inhibition of human MAOA
Homo sapiens [8] = species on record: Homo sapiens; assay: Selectivity index, ratio of IC50 for inhibition of human MAOA to IC50 for IC50 for inhibition of human MAOB
Homo sapiens [9] = species on record: Homo sapiens; assay: Selectivity index, ratio of IC50 for human MAOA to IC50 for human MAOB
[10] = target: T4, Amine oxidase [flavin-containing] A; assay: Inhibition of recombinant human MAOA using kynuramine as substrate after 30 mins by fluorescence assay

## O=C1c2ccccc2C(=O)c2c(O)c(O)cc(O)c21 [PURPURIN]
[1]
  IC50: > 40 µM

## Cn1c(=O)c2[nH]c(-c3cccc(NC(=O)/C=C/c4cccc(F)c4)c3)nc2n(C)c1=O
[1]
  Ki: 3.42 µM
[2]
  inhibition at 1 µM: 0%
[3]
  inhibition at 1 µM: 30.9%

## CCc1ccc(/C=C/C(=O)c2ccc(Cl)s2)cc1
[4]
  Ki: 5.22 µM
Homo sapiens [5]
  Ratio Ki: 16.8

## O=C(/C=C/c1ccc([N+](=O)[O-])cc1)c1ccc(Cl)s1
[4]
  Ki: 0.49 µM
[6]
  Ki: 2.55 µM
Homo sapiens [5]
  Ratio Ki: 0.19

## COc1cc(C2=NN(C(=O)Oc3ccccc3)C(c3ccc(O)c(OC)c3)C2)ccc1O (configuration not stated)
[7]
  Ki: 0.14 µM
Homo sapiens [8]
  Ratio IC50: 9e-07

## Cn1c(=O)c2c(nc(-c3cccc(Cl)c3)n2C)n(C)c1=O
[1]
  Ki: 36 µM

## O=C(SCCc1ccco1)c1cc2ccccc2oc1=O
Homo sapiens [9]
  Ratio IC50: 189
[1]
  IC50: 0.2 µM
[7]
  IC50: 39.7 µM

## CCn1c(=O)c2c(nc(/C=C/c3ccc(OC)c(OC)c3)n2C)n(CC)c1=O [ISTRADEFYLLINE]
[1]
  Ki: 0.027 µM

## Cc1ncc(/C=C/c2ccc(CN3CCOCC3)c(O)c2)c(CO)c1O
[10]
  IC50: 16 µM
